Measured values: patent US6914045B2, “Glycopeptide antibiotics” (Wyeth Holdings Corporation, priority 2001, dated 2005)
≈ marks a conversion by molar mass, not a printed value.

Legend:
Assay in all cases: in vitro antibacterial evaluation, MIC by broth dilution
Format in all cases: cell-based
[1] = system: Enterococcus sp.; details: broth dilution, 18 hours at 35° C.
Summary of the method: (§1)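 Inoculum 5×10^5 CFU/mL; concentrations 64 to 0.06 μg/mL; MIC defined as lowest inhibitory level. Conducted by broth dilution under NCCLS guidelines.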

[2] = system: Escherichia coli; details: 18 hours at 35° C.
Summary of the method: as §1

[3] = system: Staphylococcus sp.; details: broth dilution, 18 hours at 35° C.
Summary of the method: as §1

[4] = system: Streptococcus sp.; details: broth dilution, 18 hours at 35° C.
Summary of the method: as §1

[5] = Enterococcus faecalis (ATCC 29212)
[6] = Enterococcus faecalis (GC 4553)
[7] = Enterococcus faecalis (GC 4554)

## CC(c1ccccc1)C1NC(=O)CNC(=O)C(CO)NC(=O)C(C(O)C2CNC(=N)N2C2OC(CO)C(O)C(O)C2O)NC(=O)C(C(O)C2CNC(=N)N2)NC(=O)C(Cc2ccc(OC3OC(CO)C(OC4OC5COC(c6cccs6)OC5C(O)C4O)C(O)C3O)cc2)NC1=O (centres unmarked) [Example 132]
[1]; Enterococcus avium (GC 4558)
  MIC Enterococcus avium (GC 4558): 16 µg/mL (≈ 11.5 µM)
[1]; [5]
  MIC Enterococcus faecalis (ATCC 29212): 8 µg/mL (≈ 5.76 µM)
[1]; Enterococcus faecalis (GC 2242)
  MIC Enterococcus faecalis (GC 2242): 8 µg/mL (≈ 5.76 µM)
[1]; Enterococcus faecalis (GC 2691)
  MIC Enterococcus faecalis (GC 2691): 8 µg/mL (≈ 5.76 µM)
[1]; Enterococcus faecalis (GC 3059)
  MIC Enterococcus faecalis (GC 3059): 16 µg/mL (≈ 11.5 µM)
[1]; Enterococcus faecalis (GC 4552)
  MIC Enterococcus faecalis (GC 4552): 8 µg/mL (≈ 5.76 µM)
[1]; [6]
  MIC Enterococcus faecalis (GC 4553): 16 µg/mL (≈ 11.5 µM)
[1]; [7]
  MIC Enterococcus faecalis (GC 4554): 8 µg/mL (≈ 5.76 µM)
[1]; Enterococcus faecalis (GC 6189)
  MIC Enterococcus faecalis (GC 6189): 8 µg/mL (≈ 5.76 µM)
[1]; Enterococcus faecium (GC 2243)
  MIC Enterococcus faecium (GC 2243): 8 µg/mL (≈ 5.76 µM)
[1]; Enterococcus faecium (GC 4556)
  MIC Enterococcus faecium (GC 4556): 8 µg/mL (≈ 5.76 µM)
[1]; Enterococcus faecium (GC 4557)
  MIC Enterococcus faecium (GC 4557): 4 µg/mL (≈ 2.88 µM)
[1]; strain ATCC 29212
  MIC Enterococcus faecalis (ATCC 29212): 8 µg/mL (≈ 5.76 µM)
[1]; strain GC 2242
  MIC Enterococcus faecalis (GC 2242): 8 µg/mL (≈ 5.76 µM)
[1]; strain GC 2243
  MIC Enterococcus faecium (GC 2243): 8 µg/mL (≈ 5.76 µM)
[1]; strain GC 2691
  MIC Enterococcus faecalis (GC 2691): 8 µg/mL (≈ 5.76 µM)
[1]; strain GC 3059
  MIC Enterococcus faecalis (GC 3059): 16 µg/mL (≈ 11.5 µM)
[1]; strain GC 4552
  MIC Enterococcus faecalis (GC 4552): 8 µg/mL (≈ 5.76 µM)
[1]; strain GC 4553
  MIC Enterococcus faecalis (GC 4553): 16 µg/mL (≈ 11.5 µM)
[1]; strain GC 4554
  MIC Enterococcus faecalis (GC 4554): 8 µg/mL (≈ 5.76 µM)
[1]; strain GC 4556
  MIC Enterococcus faecium (GC 4556): 8 µg/mL (≈ 5.76 µM)
[1]; strain GC 4557
  MIC Enterococcus faecium (GC 4557): 4 µg/mL (≈ 2.88 µM)
[1]; strain GC 4558
  MIC Enterococcus avium (GC 4558): 16 µg/mL (≈ 11.5 µM)
[1]; strain GC 6189
  MIC Enterococcus faecalis (GC 6189): 8 µg/mL (≈ 5.76 µM)
[2]; strain ATCC 25922
  MIC Escherichia coli (ATCC 25922): >64 µg/mL
[2]; strain GC 4559
  MIC Escherichia coli (GC 4559): 32 µg/mL (≈ 23 µM)
[2]; strain GC 4560
  MIC Escherichia coli (GC 4560): 1 µg/mL (≈ 0.72 µM)
[3]
  MIC Staphylococcus aureus (ATCC 29213): 4 µg/mL (≈ 2.88 µM)
  MIC Staphylococcus aureus (GC 1131): 2 µg/mL (≈ 1.44 µM)
  MIC Staphylococcus aureus (GC 3051): 2 µg/mL (≈ 1.44 µM)
  MIC Staphylococcus aureus (GC 3053): 4 µg/mL (≈ 2.88 µM)
  MIC Staphylococcus aureus (GC 4541): 2 µg/mL (≈ 1.44 µM)
  MIC Staphylococcus aureus (GC 4542): 2 µg/mL (≈ 1.44 µM)
  MIC Staphylococcus aureus (GC 4544): 4 µg/mL (≈ 2.88 µM)
  MIC Staphylococcus aureus (GC 4545): 2 µg/mL (≈ 1.44 µM)
[3]; inoculum 5×10^5 CFU/mL, strain GC 1131
  MIC Staphylococcus aureus (GC 1131): 2 µg/mL (≈ 1.44 µM)
[3]; strain ATCC 29213
  MIC Staphylococcus aureus (ATCC 29213): 4 µg/mL (≈ 2.88 µM)
[3]; strain GC 3051
  MIC Staphylococcus aureus (GC 3051): 2 µg/mL (≈ 1.44 µM)
[3]; strain GC 3053
  MIC Staphylococcus aureus (GC 3053): 4 µg/mL (≈ 2.88 µM)
[3]; strain GC 4541
  MIC Staphylococcus aureus (GC 4541): 2 µg/mL (≈ 1.44 µM)
[3]; strain GC 4542
  MIC Staphylococcus aureus (GC 4542): 2 µg/mL (≈ 1.44 µM)
[3]; strain GC 4543
  MIC Staphylococcus aureus-SMITH (GC 4543): 2 µg/mL (≈ 1.44 µM)
[3]; strain GC 4544
  MIC Staphylococcus aureus (GC 4544): 4 µg/mL (≈ 2.88 µM)
[3]; strain GC 4545
  MIC Staphylococcus aureus (GC 4545): 2 µg/mL (≈ 1.44 µM)
[3]; strain GC 4546
  MIC Staphylococcus haemolyticus (GC 4546): 1 µg/mL (≈ 0.72 µM)
[3]; strain GC 4547
  MIC Coagulase Negative Staphylococcus (GC 4547): 2 µg/mL (≈ 1.44 µM)
[3]; strain GC 4548
  MIC Coagulase Negative Staphylococcus (GC 4548): 1 µg/mL (≈ 0.72 µM)
[3]; strain GC 4549
  MIC Coagulase Negative Staphylococcus (GC 4549): 1 µg/mL (≈ 0.72 µM)
[3]; strain GC 4551
  MIC Coagulase Negative Staphylococcus (GC 4551): 2 µg/mL (≈ 1.44 µM)
[3]; strain GC 6257
  MIC Coagulase Negative Staphylococcus (GC 6257): 1 µg/mL (≈ 0.72 µM)
[3]; strain SMITH GC 4543
  MIC Staphylococcus aureus-SMITH (GC 4543): 2 µg/mL (≈ 1.44 µM)
[4]; Streptococcus agalactiae (GC 4564)
  MIC Streptococcus agalactiae (GC 4564): 0.5 µg/mL (≈ 0.36 µM)
[4]; Streptococcus pneumoniae (ATCC 6301)
  MIC Streptococcus pneumoniae (ATCC 6301): 0.25 µg/mL (≈ 0.18 µM)
[4]; Streptococcus pneumoniae (GC 1894)
  MIC Streptococcus pneumoniae (GC 1894): 0.12 µg/mL (≈ 0.0864 µM)
[4]; Streptococcus pneumoniae (GC 4565)
  MIC Streptococcus pneumoniae (GC 4565): 0.25 µg/mL (≈ 0.18 µM)
[4]; Streptococcus pyogenes (GC 4563)
  MIC Streptococcus pyogenes (GC 4563): 0.5 µg/mL (≈ 0.36 µM)
[4]; strain ATCC 6301
  MIC Streptococcus pneumoniae (ATCC 6301): 0.25 µg/mL (≈ 0.18 µM)
[4]; strain GC 1894
  MIC Streptococcus pneumoniae (GC 1894): 0.12 µg/mL (≈ 0.0864 µM)
[4]; strain GC 4563
  MIC Streptococcus pyogenes (GC 4563): 0.5 µg/mL (≈ 0.36 µM)
[4]; strain GC 4564
  MIC Streptococcus agalactiae (GC 4564): 0.5 µg/mL (≈ 0.36 µM)
[4]; strain GC 4565
  MIC Streptococcus pneumoniae (GC 4565): 0.25 µg/mL (≈ 0.18 µM)

## CC(c1ccc(F)cc1)C1NC(=O)CNC(=O)C(CO)NC(=O)C(C(O)C2CNC(=N)N2C2OC(CO)C(O)C(O)C2O)NC(=O)C(C(O)C2CNC(=N)N2)NC(=O)C(Cc2ccc(OC3OC(CO)C(OC4OC(CO)C(O)C(O)C4O)C(O)C3O)cc2)NC1=O (stereo not drawn) [Example 261a, Cyclo[glycyl-4-fluoro-β-methylphenylalanyl-O-(4-O-hexopyranosylhexopyranosyl)tyrosyl-3-(2-iminoimidazolidin-4-yl)seryl-3-(3-hexopyranosyl-2-iminoimidazolidin-4-yl)serylseryl]]
[1]; Enterococcus avium (GC 4558)
  MIC Enterococcus avium (GC 4558): >64 µg/mL
[1]; [5]
  MIC Enterococcus faecalis (ATCC 29212): >64 µg/mL
[1]; [6]
  MIC Enterococcus faecalis (GC 4553): >64 µg/mL
[1]; [7]
  MIC Enterococcus faecalis (GC 4554): >64 µg/mL
[1]; Enterococcus faecium (GC 2243)
  MIC Enterococcus faecium (GC 2243): >64 µg/mL
[1]; Enterococcus faecium (GC 4556)
  MIC Enterococcus faecium (GC 4556): >64 µg/mL
[1]; Enterococcus faecium (GC 4557)
  MIC Enterococcus faecium (GC 4557): >64 µg/mL
[1]
  MIC Enterococcus faecalis (GC 2242): >64 µg/mL
  MIC Enterococcus faecalis (GC 4552): >64 µg/mL
[1]; strain ATCC 29212
  MIC Enterococcus faecalis (ATCC 29212): >64 µg/mL
[1]; strain GC 2242
  MIC Enterococcus faecalis (GC 2242): >64 µg/mL
[1]; strain GC 2243
  MIC Enterococcus faecium (GC 2243): >64 µg/mL
[1]; strain GC 4552
  MIC Enterococcus faecalis (GC 4552): >64 µg/mL
[1]; strain GC 4553
  MIC Enterococcus faecalis (GC 4553): >64 µg/mL
[1]; strain GC 4554
  MIC Enterococcus faecalis (GC 4554): >64 µg/mL
[1]; strain GC 4556
  MIC Enterococcus faecium (GC 4556): >64 µg/mL
[1]; strain GC 4557
  MIC Enterococcus faecium (GC 4557): >64 µg/mL
[1]; strain GC 4558
  MIC Enterococcus avium (GC 4558): >64 µg/mL
[2]; Escherichia coli (ATCC 25922)
  MIC Escherichia coli (ATCC 25922): >64 µg/mL
[2]; Escherichia coli (GC 4559)
  MIC Escherichia coli (GC 4559): >64 µg/mL
[2]; Escherichia coli (GC 4560)
  MIC Escherichia coli (GC 4560): >64 µg/mL
[3]
  MIC Coagulase Negative Staphylococcus (GC 4547): >64 µg/mL
  MIC Coagulase Negative Staphylococcus (GC 4548): >64 µg/mL
  MIC Coagulase Negative Staphylococcus (GC 4549): >64 µg/mL
  MIC Coagulase Negative Staphylococcus (GC 4551): >64 µg/mL
  MIC Staphylococcus aureus (ATCC 29213): >64 µg/mL
  MIC Staphylococcus aureus (GC 1131): >64 µg/mL
  MIC Staphylococcus aureus (GC 4541): >64 µg/mL
  MIC Staphylococcus aureus (GC 4542): >64 µg/mL
  MIC Staphylococcus aureus (GC 4544): >64 µg/mL
  MIC Staphylococcus aureus (GC 4545): >64 µg/mL
  MIC Staphylococcus aureus-SMITH (GC 4543): >64 µg/mL
  MIC Staphylococcus haemolyticus (GC 4546): >64 µg/mL
[3]; strain ATCC 29213
  MIC Staphylococcus aureus (ATCC 29213): >64 µg/mL
[3]; strain GC 1131
  MIC Staphylococcus aureus (GC 1131): >64 µg/mL
[3]; strain GC 4541
  MIC Staphylococcus aureus (GC 4541): >64 µg/mL
[3]; strain GC 4542
  MIC Staphylococcus aureus (GC 4542): >64 µg/mL
[3]; strain GC 4544
  MIC Staphylococcus aureus (GC 4544): >64 µg/mL
[3]; strain GC 4545
  MIC Staphylococcus aureus (GC 4545): >64 µg/mL
[4]
  MIC Streptococcus agalactiae (GC 4564): >64 µg/mL
  MIC Streptococcus pyogenes (ID-3187): >64 µg/mL
[4]; strain GC 4564
  MIC Streptococcus agalactiae (GC 4564): >64 µg/mL
[4]; strain ID-3187
  MIC Streptococcus pyogenes (ID-3187): >64 µg/mL
